What was measured:
[1] = biological target: T1, fascin His474 to Ala mutant (Homo sapiens, UniProt Q16658, H474A); test: Actin bundling assay with fascin H474A mutant; format: biochemical
T1 construct: GST (N, cleaved yes); made in house; host or cells: Escherichia coli BL21 (pGEX4T-Fascin1)
Excerpt: Identification of fascin as the protein target of migrastatin analogs. Whole cell lysates from 4T1 mouse breast tumor cells were made. After preclearing the cell lysate with immobilized neutravidin biotin binding protein (Pierce, IL, USA) to remove biotin and avidin-binding proteins, the cell lysates were loaded to a column packed with the biotin-labeled macroketone (conjugated to neutravidin beads). A control column packed with free biotin and neutravidin beads was run side-by-side. After washing the column with 10 bed volumes of lysis buffer with 300 mM NaCl, the bound proteins were eluted with 0.1 M Glycine-HCl at pH 2.8 according to the manufacturer's instruction. […] A 1-liter culture was grown to an A600 reading of 1.0 and then induced by addition of 0.3 mM isopropyl 1-thio-D-galactopyranoside (IPTG) for 12 hours at 25° C. […] Actin bundling activity was measured by low speed centrifugation assay and fluorescence microscopy. […] Both supernatants and pellets were dissolved in an equivalent volume of SDS sample buffer, and the amount of actin was determined by SDS-PAGE. For fluorescence microscopy, monomeric G-actin was polymerized as described above. […] The samples were mounted between a slide and a coverslip coated with poly-lysine and imaged by fluorescence microscopy. […] Both supernatants and pellets were dissolved in an equivalent volume of SDS sample buffer and analyzed by SDS-PAGE. […]

fascin = fascin (Homo sapiens, UniProt Q16658); test: GST-fascin and biotin-macroketone interaction; format: binding; design: made in house; host or cells: Escherichia coli BL21; details: excess unlabeled compound
Protocol: Whole cell lysates from 4T1 mouse breast tumor cells were made. After preclearing the cell lysate with immobilized neutravidin biotin binding protein (Pierce, IL, USA) to remove biotin and avidin-binding proteins, the cell lysates were loaded to a column packed with the biotin-labeled macroketone (conjugated to neutravidin beads). A control column packed with free biotin and neutravidin beads was run side-by-side. After washing the column with 10 bed volumes of lysis buffer with 300 mM NaCl, the bound proteins were eluted with 0.1 M Glycine-HCl at pH 2.8 according to the manufacturer's instruction. […] Protein Expression and Purification. Recombinant GST-fascin fusion protein was produced in BL21 Escherichia coli. A 1-liter culture was grown to an A600 reading of 1.0 and then induced by addition of 0.3 mM isopropyl 1-thio-D-galactopyranoside (IPTG) for 12 hours at 25° C. Cells were flash frozen and then lysed by sonication in Tris-buffered saline. The supernatant was then incubated with glutathione-Sepharose for 2 h at 4° C. After extensive washing, GST-fascin was eluted and concentrated with a Centricon Plus-20 (Millipore). To remove the GST tag from the fusion protein, beads were incubated with thrombin overnight at 4° C. The supernatant was collected and concentrated. GST-fascin and Biotin-macroketone Interaction. […] Proteins associated with biotin-macroketone were precipitated with Untralink-immobilized NeutrAvidin agarose (Pierce). After extensive washing, bound proteins were eluted with SDS sample buffer and resolved by 10% SDS-PAGE. F-Actin Bundling Assay. Actin bundling activity was measured by low speed centrifugation assay and fluorescence microscopy. In low-speed centrifugation assay, monomeric rabbit G-actin was induced to polymerize at room temperature in F-actin buffer (20 mM Tris-HCl at pH 8, 1 mM ATP, 1 mM DTT, 2 mM MgCl2 and 100 mM KCl). Recombinant fascin proteins or control buffer were subsequently incubated with F-actin for 60 min at room temperature and centrifuged for 30 min at 10,000 g in an Eppendorf 5415D table-top centrifuge.

COC1C=CCCCCC(=O)CCC(C)=CC(C)C1O (stereo not drawn) [macroketone, Migrastatin ketone]
sensitivity of actin bundling activity of fascin mutant [1]: resistant | competition of binding of biotin-conjugated macroketone to fascin (fascin): efficiently competed | competition of binding of biotin-conjugated macroketone to fascin (fascin; listed as unlabeled macroketone): decreased the binding

Source: US20100297109A1, “METHODS FOR INHIBITING FASCIN” (Cornell University, priority 2007, published 2010)
